The record followed here is PubChem BioAssay AID2305 (GlaxoSmithKline (GSK), 2010).

The term IC50 denotes the concentration that gives 50% inhibition. Read a low IC50 as inhibition by little substance.

Molecules are shown by their SMILES. Where “and” joins values, the source holds several entries; their conditions need not be identical. Identical values can stand only once.

The assay has as its system P. falciparum 3D7 growth, pLDH absorbance. Put plainly: blood-stage malaria parasite growth potency – strain 3D7, dose response (AID 2305).
In turn, `O=C(Nc1ccc(-c2cccc(-c3nc4ccc(C(F)(F)F)cc4[nH]3)c2)cc1)c1ccc(=O)[nH]n1` yielded an IC50 of 1070 nM. Molecule `CN(C)Cc1c(O)ccc2[nH]c(-c3cccc(F)c3)nc12` gave an IC50 of 1000 nM. In turn, `O=C(/C=C/c1ccc(Cl)c(Cl)c1)N1CCC(CN2CCC(Cc3nc4ccccc4[nH]3)CC2)CC1` gave an IC50 of 250 nM.

Regarding `Cc1cccc(OCC(=O)Nc2cccc(NC(=O)COc3cccc(C)c3)n2)c1`, the concentration for half-maximal inhibition (IC50) is 670 nM. In the case of `COc1ccc(CN2CCN(Cc3cc(Cl)ccc3O)CC2CCO)c(C)c1C` (centres undefined), the IC50 worked out at 1490 nM. `CC(Cc1ccc(OCCCCOc2ccccc2)cc1)NCCCn1ccnc1` (centres undefined): the half-inhibitory concentration (IC50) is 170 nM. As to `Cc1ccc2cc(C3NC(=O)c4ccccc4N3)c(Cl)nc2c1` (centres undefined), the half-inhibitory concentration (IC50) came to 940 nM. `Cc1cccc2[nH]c(-c3ccc(-c4cccc(CN5CCC(CCN6CCCCC6)CC5)c4)s3)nc12` registered an IC50 of 140 nM.

Molecule `CCOc1ccc2nc(C)cc(NN=Cc3ccccc3)c2c1` gave an IC50 of 780 nM.

In turn, `O=C(/C=C/c1ccc(Cl)c(Cl)c1)NCCCCCN1CCC(NC(=O)Nc2cccc(Cl)c2)CC1` showed an IC50 of 750 nM.

Turning to `CCN1CCN(CCCNc2c3ccc(Cl)cc3nc3ccc(O)cc23)CC1`, the IC50 was determined as 570 nM. For `Cc1ccc(-n2cc(CNCCc3ncc(C)[nH]3)c(-c3ccc(F)cc3)n2)cc1` the value was 1510 nM. In the case of `Cc1cc(N)c2cc(NC(=O)CCC(=O)Nc3ccc4nc(C)cc(N)c4c3)ccc2n1`, the IC50 is 950 nM. The value for `Cc1ccccc1C1CCN(C2CCC(NC(=O)/C=C/c3cccc(Cl)c3)CC2)CC1` (centres undefined) was 890 nM. For the molecule `CC(C)(C)c1cc(C(=O)N2CCN(c3ncccc3C(F)(F)F)CC2)n(Cc2ccccc2)n1`, the IC50 worked out at 250 nM.

For the molecule `N#Cc1ccccc1N1CCN(C2CCC(NC(=O)c3n[nH]c4cc(C(F)(F)F)ccc34)CC2)CC1` (centres undefined), the IC50 is 1370 nM.

Regarding `CNC(=O)c1cc(NCCCNCc2ccc(Cl)c(C(F)(F)F)c2)nc2ccccc12`, the IC50 was determined as 930 nM. The molecule `COc1cc(C)nc2ccc(NC(=O)c3ccc(C(=O)Nc4ccc5nc(C)cc(OC)c5c4)cc3)cc12` yielded an IC50 of 60 nM.

In turn, `CCC(C)Oc1ccc2nc(N)nc(N)c2c1Cl` (centres undefined) displayed an IC50 of 180 nM. The molecule `CCCCCCOc1ccc(C(=O)NCCCC2CCCN(CCCCCNC(=O)C=Cc3ccc(Cl)c(Cl)c3)C2)cc1` (centres undefined) gave a half-inhibitory concentration (IC50) of 700 nM. The value for `O=C(c1cccc(-c2noc(C(F)(F)F)n2)c1)N1CCN(c2ccncc2)CC1` was 230 nM. In turn, `O=C(NC1CCCCC1)N(Cc1ccc(-c2ccc(CNCc3ccc4c(c3)OCO4)cc2)cc1)C1CCN(Cc2ccccc2)CC1` gave an IC50 of 690 nM. For `CCOC(=O)C1=C(C)N=c2sc(=Cc3cc(Cl)ccc3O)c(=O)n2C1c1ccc2c(c1)OCO2` (centres undefined), the IC50 is 710 nM. Take `CN1CCC(N2CCN(Cc3cccc(-c4cccc(-c5nc6ccccc6[nH]5)c4)c3)CC2)CC1`: the IC50 turned out to be 190 nM.

`c1ccc2c(CNc3ccnc(NCc4cccc5ccccc45)n3)cccc2c1` had an IC50 of 560 nM.

Molecule `CC(C)c1ccc(CN2CCC(CNC(=O)c3cc(-c4cccc(F)c4)cs3)C2)cc1` (centres undefined) came in with a half-inhibitory concentration (IC50) of 1660 nM. For `CCOC(=O)c1c(CN(CC)CC)n(-c2ccccc2)c2cc(Br)c(O)cc12` the value was 1000 nM; for `COC(=O)COc1cc(C(=O)NCCCCN2CCC(c3ccc4c(c3OC)CCCC4)CC2)ccc1-c1ccc(Cl)cc1`, 260 nM; for `N#Cc1cccc(C(=O)Nc2cccc(-c3ccc(CN4CCCC4)cc3)c2)c1`, 700 nM.

For the molecule `CCC(N)(C#Cc1ccc(-c2c(C)[nH]c(C)c(Br)c2=O)cc1)CC`, the IC50 amounted to 40 nM. The value for `Cc1cc2c(cc1C(F)(F)F)N(C(=O)Nc1ccc(C(=O)NC3CCN(Cc4ccccc4)C3)cc1)CC2` (centres undefined) was 780 nM; that for `Cc1ccc(-n2cc(CNCCCn3ccnc3)c(-c3cccc(C)c3)n2)cc1` was 770 nM.

With `O=C(C=Cc1ccc([N+](=O)[O-])cc1)NC1CCC(CN2CCC(c3c[nH]c4ccccc34)CC2)CC1` (centres undefined), the IC50 was 790 nM and 840 nM. The value for `O=C(Nc1ccc(C(=O)N2CCN(CCN3CCN(c4cccc(C(F)(F)F)c4)CC3)CC2)cc1)c1ccc(OC(F)(F)F)cc1` was 690 nM. In turn, `COc1cc(N)c(Cl)cc1C(=O)NCC1CCN(c2nc(C)cc(C)n2)CC1` came in with an IC50 of 510 nM. In the case of `CCN1CCN(CCCNc2c3ccc(Cl)cc3nc3ccc(OC)cc23)CC1`, the IC50 was 150 nM.

Molecule `O=[N+]([O-])c1cccc(CNCC2CCN(Cc3ccc(-c4ccccc4)cc3)CC2)c1` displayed an IC50 of 250 nM.

`CC(CNc1ccnc(Nc2ccc3[nH]c(=O)[nH]c3c2)n1)c1ccccc1` (centres undefined) displayed a half-maximal inhibitory concentration (IC50) of 700 nM.

In turn, `Cc1nc(C(C)Nc2nncc(-c3ccc(Cl)cc3)n2)cs1` (centres undefined) displayed an IC50 of 1330 nM. For the molecule `Cc1cc(F)ccc1-c1nc(NCCCN2CCCC2=O)nc2c1ccc(=O)n2-c1c(F)cccc1F`, the IC50 was 1020 nM. `Cc1ccc(F)c(NC(=O)c2c(-c3c(F)cccc3Cl)noc2C)c1` came in with an IC50 of 930 nM. Turning to `N#Cc1cccc(C(=O)Nc2ccc(-c3ccc(CN4CCCC4)cc3)cc2)c1`, the IC50 was found to be 1150 nM. In turn, `Cc1cccc(C)c1OC(=O)[C@@H](C)[C@@H](O)C1(Sc2ccccc2)CCN(C)CC1` registered an IC50 of 730 nM. In turn, `O=C(Cn1cnc2c(nnn2Cc2ccccc2F)c1=O)Nc1ccc2c(c1)OCCO2` yielded an IC50 of 950 nM.
